pIC50: −log10 of the molar value.
Tests used:
Assay type in all cases: biochemical
PI3K (p110β/p85α) = PI3K (p110β/p85α) (Homo sapiens, UniProt P42338); test: PI3Kβ ADP-Glo kinase assay; details: read-out: PI3Kβ Enzyme activity IC50
PI3K (p110γ) = PI3K (p110γ) (Homo sapiens, UniProt P48736); test: PI3Kγ ADP-Glo kinase assay; details: read-out: PI3Kγ Enzyme activity IC50
[1] = biological target: recombinant PI3K (p110α/p85α) (Homo sapiens, UniProt P42336); test: PI3Kα ADP-Glo kinase assay; details: read-out: PI3Kα Enzyme activity IC50
recombinant PI3K (p110α/p85α), sequence (P42336 whole entry): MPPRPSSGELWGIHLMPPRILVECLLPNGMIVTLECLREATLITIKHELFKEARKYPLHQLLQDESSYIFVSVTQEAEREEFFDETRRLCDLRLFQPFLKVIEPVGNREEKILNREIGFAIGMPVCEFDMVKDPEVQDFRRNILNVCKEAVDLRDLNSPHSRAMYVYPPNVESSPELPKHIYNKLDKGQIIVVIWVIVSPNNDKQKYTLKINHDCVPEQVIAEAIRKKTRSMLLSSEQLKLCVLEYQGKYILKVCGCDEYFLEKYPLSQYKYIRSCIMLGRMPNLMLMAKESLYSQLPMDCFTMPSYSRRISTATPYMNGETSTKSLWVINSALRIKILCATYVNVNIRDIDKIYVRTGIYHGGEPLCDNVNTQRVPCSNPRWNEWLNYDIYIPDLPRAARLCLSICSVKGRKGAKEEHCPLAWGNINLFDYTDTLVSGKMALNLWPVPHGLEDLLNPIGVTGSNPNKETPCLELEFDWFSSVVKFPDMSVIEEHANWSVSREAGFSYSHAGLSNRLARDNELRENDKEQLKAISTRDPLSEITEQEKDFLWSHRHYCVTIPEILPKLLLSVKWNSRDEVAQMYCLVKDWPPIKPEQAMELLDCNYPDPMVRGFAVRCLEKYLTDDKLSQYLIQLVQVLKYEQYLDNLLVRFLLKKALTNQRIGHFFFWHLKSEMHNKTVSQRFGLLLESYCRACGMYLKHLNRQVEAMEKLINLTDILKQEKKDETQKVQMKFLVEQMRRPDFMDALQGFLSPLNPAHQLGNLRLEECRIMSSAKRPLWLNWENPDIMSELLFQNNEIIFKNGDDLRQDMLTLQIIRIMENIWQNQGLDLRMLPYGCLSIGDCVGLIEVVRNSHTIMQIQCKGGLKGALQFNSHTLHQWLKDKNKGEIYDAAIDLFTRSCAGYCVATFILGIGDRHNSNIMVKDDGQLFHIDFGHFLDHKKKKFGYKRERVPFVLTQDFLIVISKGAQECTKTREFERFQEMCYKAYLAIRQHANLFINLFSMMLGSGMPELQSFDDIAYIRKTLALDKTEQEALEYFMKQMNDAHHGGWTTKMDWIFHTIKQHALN
recombinant PI3K (p110α/p85α), sequence (P27986 whole entry partner): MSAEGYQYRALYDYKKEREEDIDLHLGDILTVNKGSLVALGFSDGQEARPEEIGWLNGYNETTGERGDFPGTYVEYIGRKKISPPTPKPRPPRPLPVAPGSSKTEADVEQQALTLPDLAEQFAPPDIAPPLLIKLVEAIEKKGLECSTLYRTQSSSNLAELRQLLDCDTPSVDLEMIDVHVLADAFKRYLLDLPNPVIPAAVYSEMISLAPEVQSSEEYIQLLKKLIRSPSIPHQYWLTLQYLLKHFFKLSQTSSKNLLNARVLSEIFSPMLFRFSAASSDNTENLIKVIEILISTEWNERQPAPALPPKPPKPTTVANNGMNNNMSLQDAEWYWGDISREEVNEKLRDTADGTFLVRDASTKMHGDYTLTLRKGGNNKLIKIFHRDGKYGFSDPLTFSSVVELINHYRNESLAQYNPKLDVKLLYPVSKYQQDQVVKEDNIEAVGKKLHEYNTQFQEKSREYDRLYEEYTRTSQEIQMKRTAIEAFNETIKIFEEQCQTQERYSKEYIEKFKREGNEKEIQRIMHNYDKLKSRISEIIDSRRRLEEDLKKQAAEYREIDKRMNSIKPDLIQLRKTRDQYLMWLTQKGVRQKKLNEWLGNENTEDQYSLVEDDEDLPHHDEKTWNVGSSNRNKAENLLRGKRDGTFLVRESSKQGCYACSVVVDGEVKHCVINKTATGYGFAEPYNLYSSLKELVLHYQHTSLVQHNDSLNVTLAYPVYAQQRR

[2] = biological target: recombinant PI3K (p110δ/p85α) (Homo sapiens, UniProt O00329); test: PI3Kδ ADP-Glo kinase assay; details: read-out: PI3Kδ Enzyme activity IC50
recombinant PI3K (p110δ/p85α), sequence (O00329 whole entry): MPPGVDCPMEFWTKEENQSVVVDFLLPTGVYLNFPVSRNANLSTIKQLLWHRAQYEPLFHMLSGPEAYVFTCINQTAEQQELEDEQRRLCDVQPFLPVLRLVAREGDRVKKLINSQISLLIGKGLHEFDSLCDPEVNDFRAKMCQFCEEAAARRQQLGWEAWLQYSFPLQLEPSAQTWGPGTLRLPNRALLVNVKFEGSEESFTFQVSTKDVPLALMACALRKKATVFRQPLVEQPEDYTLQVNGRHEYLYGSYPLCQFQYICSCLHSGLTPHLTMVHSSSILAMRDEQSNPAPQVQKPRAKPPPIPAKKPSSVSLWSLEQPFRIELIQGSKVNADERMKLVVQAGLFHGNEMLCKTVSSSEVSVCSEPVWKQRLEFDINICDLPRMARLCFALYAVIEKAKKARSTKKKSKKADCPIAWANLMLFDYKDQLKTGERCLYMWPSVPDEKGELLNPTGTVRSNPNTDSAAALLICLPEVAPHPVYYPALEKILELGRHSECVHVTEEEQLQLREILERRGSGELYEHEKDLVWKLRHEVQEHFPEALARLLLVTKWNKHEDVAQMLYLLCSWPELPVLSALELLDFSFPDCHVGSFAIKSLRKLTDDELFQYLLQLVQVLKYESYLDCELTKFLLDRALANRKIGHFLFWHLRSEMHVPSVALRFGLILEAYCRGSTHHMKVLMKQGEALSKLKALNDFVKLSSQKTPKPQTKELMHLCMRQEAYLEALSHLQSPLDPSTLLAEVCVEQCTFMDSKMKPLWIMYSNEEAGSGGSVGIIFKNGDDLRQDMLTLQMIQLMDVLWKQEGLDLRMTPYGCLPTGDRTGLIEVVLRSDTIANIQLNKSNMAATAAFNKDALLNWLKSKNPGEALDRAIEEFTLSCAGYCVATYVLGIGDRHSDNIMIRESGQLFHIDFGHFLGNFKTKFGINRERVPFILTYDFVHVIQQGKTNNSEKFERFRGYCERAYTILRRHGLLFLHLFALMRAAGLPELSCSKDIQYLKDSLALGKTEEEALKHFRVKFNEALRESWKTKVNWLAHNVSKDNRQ
recombinant PI3K (p110δ/p85α), sequence (P27986 whole entry partner): as the sequence (P27986 whole entry partner) above
Experimental: Compounds disclosed herein were tested for inhibition of PI3Kδ kinase activity using commercial ADP-Glo™ Kinase Assay (Promega Corporation) and following the manufacture's instruction. Briefly, recombinant PI3K (p110δ/p85α) enzyme, lipid kinase substrate and a serial dilution of compounds disclosed herein were incubated for 0.5 hr at room temperature. ATP was added to initiate the kinase reaction. After incubation for 1 hr at room temperature, ADP-Glo™ reagent was added to terminate the kinase reaction and deplete the remaining ATP. After incubation for 1 hr at room temperature, kinase detection reagent was added to simultaneously convert ADP to ATP and allow the newly synthesized ATP to be measured using a luciferase/luciferin reaction. After incubation for 0.5 hr at room temperature, the luminescence generated was measured on a PHERAstar FS plate reader (BMG LABTECH), The residual enzyme activity in presence of increasing concentrations of compounds was calculated based on the luminescence. The IC50 for each compound was derived from fitting the data to the four-parameter logistic equation by Graphpad Prism software.

PI3K (p110γ), sequence (P48736 whole entry): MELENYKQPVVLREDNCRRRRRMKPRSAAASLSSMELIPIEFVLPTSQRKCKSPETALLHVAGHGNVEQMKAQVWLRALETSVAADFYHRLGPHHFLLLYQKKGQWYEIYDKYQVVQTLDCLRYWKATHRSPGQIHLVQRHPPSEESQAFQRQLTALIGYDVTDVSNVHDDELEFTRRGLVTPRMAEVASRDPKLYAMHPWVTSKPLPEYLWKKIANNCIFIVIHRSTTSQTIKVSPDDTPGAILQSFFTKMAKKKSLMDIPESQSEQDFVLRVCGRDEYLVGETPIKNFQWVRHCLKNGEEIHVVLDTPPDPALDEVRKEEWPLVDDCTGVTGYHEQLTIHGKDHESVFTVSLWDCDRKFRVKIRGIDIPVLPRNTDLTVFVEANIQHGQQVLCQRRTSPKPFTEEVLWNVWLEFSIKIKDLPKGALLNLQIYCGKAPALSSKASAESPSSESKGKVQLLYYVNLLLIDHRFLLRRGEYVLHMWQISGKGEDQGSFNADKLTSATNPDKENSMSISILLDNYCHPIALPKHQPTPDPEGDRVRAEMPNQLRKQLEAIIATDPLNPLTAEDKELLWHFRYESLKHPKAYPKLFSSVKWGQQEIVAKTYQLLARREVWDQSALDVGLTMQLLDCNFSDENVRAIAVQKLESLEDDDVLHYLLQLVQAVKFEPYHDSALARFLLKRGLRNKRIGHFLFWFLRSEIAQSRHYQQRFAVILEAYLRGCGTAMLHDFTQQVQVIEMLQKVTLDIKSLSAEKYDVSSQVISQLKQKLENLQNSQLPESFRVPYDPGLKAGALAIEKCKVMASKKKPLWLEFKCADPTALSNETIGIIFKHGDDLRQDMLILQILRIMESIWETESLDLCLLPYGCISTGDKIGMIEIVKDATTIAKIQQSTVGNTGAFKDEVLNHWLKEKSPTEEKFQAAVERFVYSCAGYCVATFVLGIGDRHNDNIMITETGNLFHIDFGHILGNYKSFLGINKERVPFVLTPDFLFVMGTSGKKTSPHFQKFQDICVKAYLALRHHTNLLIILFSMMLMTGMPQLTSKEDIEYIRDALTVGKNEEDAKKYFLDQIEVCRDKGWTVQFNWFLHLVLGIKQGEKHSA
PI3K (p110β/p85α), sequence (P42338 whole entry): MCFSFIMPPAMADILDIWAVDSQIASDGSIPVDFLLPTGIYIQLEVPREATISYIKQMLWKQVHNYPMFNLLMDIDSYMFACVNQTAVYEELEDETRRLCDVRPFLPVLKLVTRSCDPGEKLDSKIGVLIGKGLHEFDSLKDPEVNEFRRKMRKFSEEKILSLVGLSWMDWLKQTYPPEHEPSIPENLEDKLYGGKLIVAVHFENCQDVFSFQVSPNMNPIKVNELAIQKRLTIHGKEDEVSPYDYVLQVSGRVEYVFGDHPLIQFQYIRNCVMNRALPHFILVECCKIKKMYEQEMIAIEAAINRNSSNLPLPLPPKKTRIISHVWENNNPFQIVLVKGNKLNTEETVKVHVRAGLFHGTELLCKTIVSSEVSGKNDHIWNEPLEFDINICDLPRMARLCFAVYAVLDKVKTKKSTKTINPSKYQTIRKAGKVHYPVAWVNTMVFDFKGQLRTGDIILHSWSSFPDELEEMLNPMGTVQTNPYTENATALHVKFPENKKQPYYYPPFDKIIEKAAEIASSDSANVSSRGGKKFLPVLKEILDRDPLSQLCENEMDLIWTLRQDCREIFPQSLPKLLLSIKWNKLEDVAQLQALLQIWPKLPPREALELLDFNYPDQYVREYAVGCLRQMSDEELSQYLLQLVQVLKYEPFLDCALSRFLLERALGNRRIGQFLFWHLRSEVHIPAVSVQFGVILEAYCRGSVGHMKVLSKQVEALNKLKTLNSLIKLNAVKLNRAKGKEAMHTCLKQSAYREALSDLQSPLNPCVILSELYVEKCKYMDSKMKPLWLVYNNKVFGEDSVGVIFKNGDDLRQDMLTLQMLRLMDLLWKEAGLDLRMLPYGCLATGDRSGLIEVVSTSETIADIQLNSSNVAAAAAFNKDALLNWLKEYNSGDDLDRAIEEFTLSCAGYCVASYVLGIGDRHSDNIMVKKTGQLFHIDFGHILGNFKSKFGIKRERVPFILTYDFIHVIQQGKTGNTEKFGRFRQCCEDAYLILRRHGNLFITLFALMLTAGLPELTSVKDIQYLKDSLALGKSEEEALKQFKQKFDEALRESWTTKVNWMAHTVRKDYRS
PI3K (p110β/p85α), sequence (P27986 whole entry partner): as the sequence (P27986 whole entry partner) above

SMILES | pIC50 (PI3K (p110β/p85α)) | pIC50 (PI3K (p110γ)) | pIC50 [1] | pIC50 [2]
CCOc1c(C(C)c2nc(Cl)c3c(N)nccn23)cc(Cl)c(C)c1-c1ccc(OCCOC)nc1 (stereo not shown) [Compound 31, 1-chloro-3-(1-(5-chloro-2-ethoxy-3-(6-(2-methoxyethoxy)pyridin-3-yl)-4-methylphenyl)ethyl)imidazo[1,5-a]pyrazin-8-amine] | 6.21 | 6.37 | 5.66 | 8.60
CCOc1c(C(C)c2nc(C)c3c(N)nccn23)cc(Cl)c(C)c1-c1ccc(C(F)(F)F)nc1 (stereo not shown) [Compound 32, 3-(1-(5-chloro-2-ethoxy-4-methyl-3-(6-(trifluoromethyl)pyridin-3-yl)phenyl)ethyl)-1-methylimidazo[1,5-a]pyrazin-8-amine] | 5.46 | 5.68 | 5.13 | 8.07
CCOc1c(C(C)c2nc(Cl)c3c(N)nccn23)cc(F)c(Cl)c1-c1ccc(C(F)(F)F)nc1 (stereo not shown) [Compound 33, 1-chloro-3-(1-(4-chloro-2-ethoxy-5-fluoro-3-(6-(trifluoromethyl)pyridin-3-yl)phenyl)ethyl)imidazo[1,5-a]pyrazin-8-amine] | 5.74 | 6.12 | 5.74 | 8.24
CC(C)Oc1c(C(C)c2nc(Cl)c3c(N)nccn23)cc(F)c(Cl)c1-c1ccc(C(F)(F)F)nc1 (stereo not shown) [Compound 35, 1-chloro-3-(1-(4-chloro-5-fluoro-2-isopropoxy-3-(6-(trifluoromethyl)pyridin-3-yl)phenyl)ethyl)imidazo[1,5-a]pyrazin-8-amine] | 4.10 | 5.23 | 4.64 | 7.96
CCOc1c(C(C)c2nc(Cl)c3c(N)nccn23)cc(Cl)c(Cl)c1-c1ccc(C(F)(F)F)nc1 (stereo not shown) [Compound 36, 1-chloro-3-(1-(4,5-dichloro-2-ethoxy-3-(6-(trifluoromethyl)pyridin-3-yl)phenyl)ethyl)imidazo[1,5-a]pyrazin-8-amine] | 6.24 | 6.14 | 5.89 | 8.66
CC(C)Oc1c(C(C)c2nc(Cl)c3c(N)nccn23)cc(Cl)c(Cl)c1-c1ccc(C(F)(F)F)nc1 (stereo not shown) [Compound 37, 1-chloro-3-(1-(4,5-dichloro-2-isopropoxy-3-(6-(trifluoromethyl)pyridin-3-yl)phenyl)ethyl)imidazo[1,5-a]pyrazin-amine] | 5.72 | 6.05 | 4.96 | 8.38
Cc1c(Cl)cc(C(C)c2nc(Br)c3c(N)nccn23)c(OC(C)C)c1-c1ccc(C(F)(F)F)nc1 (stereo not shown) [Compound 38, 1-bromo-3-(1-(5-chloro-2-isopropoxy-4-methyl-3-(6-(trifluoromethyl)pyridin-3-yl)phenyl)ethyl)imidazo[1,5-a]pyrazin-8-amine] | 4.52 | 5.55 | < 3.70 | 7.72
Cc1c(Cl)cc([C@H](C)c2nc(Br)c3c(N)nccn23)c(OC(C)C)c1-c1ccc(C(F)(F)F)nc1 [Compound 38A] | 4.55 | 6.13 | < 3.70 | 8.27
CCOc1c(C(C)c2nc(Br)c3c(N)nccn23)cc(Cl)c(C)c1-c1cncc(C(F)(F)F)c1 (stereo not shown) [Compound 39, 1-bromo-3-(1-(5-chloro-2-ethoxy-4-methyl-3-(5-(trifluoromethyl)pyridin-3-yl)phenyl)ethyl)imidazo[1,5-a]pyrazin-8-amine] | 5.70 | 5.80 | 5.49 | 8.24
CC(C)Oc1c(C(C)c2nc(Cl)c3c(N)nccn23)cc(Cl)c(F)c1-c1ccc(C(F)(F)F)nc1 (stereo not shown) [Compound 40, 1-chloro-3-(1-(5-chloro-4-fluoro-2-isopropoxy-3-(6-(trifluoromethyl)pyridin-3-yl)phenyl)ethyl)imidazo[1,5-a]pyrazin-8-amine] | < 4.30 | < 4.30 | < 4.30 | 8.26
CCOc1c(C(C)c2nc(Cl)c3c(N)nccn23)cc(Cl)c(F)c1-c1ccc(C(F)(F)F)nc1 (stereo not shown) [Compound 41, 1-chloro-3-(1-(5-chloro-2-ethoxy-4-fluoro-3-(6-(trifluoromethyl)pyridin-3-yl)phenyl)ethyl)imidazo[1,5-a]pyrazin-8-amine] | 5.51 | 5.68 | 5.57 | 8.49
CCOc1c([C@H](C)c2nc(Cl)c3c(N)nccn23)cc(Cl)c(F)c1-c1ccc(C(F)(F)F)nc1 [Compound 41A] | 5.92 | 6.14 | 5.66 | 8.68
CCCOc1c(C(C)c2nc(Cl)c3c(N)nccn23)cc(Cl)c(F)c1-c1ccc(C(F)(F)F)nc1 (stereo not shown) [Compound 42, 1-chloro-3-(1-(5-chloro-4-fluoro-2-propoxy-3-(6-(trifluoromethyl)pyridin-3-yl)phenyl)ethyl)imidazo[1,5-a]pyrazin-8-amine] | < 4.30 | 5.80 | < 4.30 | 8.13
CCCOc1c([C@H](C)c2nc(Cl)c3c(N)nccn23)cc(Cl)c(F)c1-c1ccc(C(F)(F)F)nc1 [Compound 42A] | 5.66 | 6.09 | 4.59 | 8.39
CCOc1c(C(C)c2nc(Cl)c3c(N)nccn23)cc(Cl)c(F)c1-c1ccc(C(F)(F)F)nc1OC (stereo not shown) [Compound 43, 1-chloro-3-(1-(5-chloro-2-ethoxy-4-fluoro-3-(2-methoxy-6-(trifluoromethyl)pyridin-3-yl)phenyl)ethyl)imidazo[1,5-al]pyrazin-8-amine] | < 4.30 | < 4.30 | < 4.30 | 7.23
CCOc1c([C@H](C)c2nc(Cl)c3c(N)nccn23)cc(Cl)c(F)c1-c1ccc(C(F)(F)F)nc1OC [Compound 43A] | < 4.30 | < 4.30 | < 4.30 | 7.55
CCOc1c(C(C)c2nc(Cl)c3c(N)nccn23)cc(Cl)c(C)c1-c1ccc(OC)cc1 (stereo not shown) [Compound 45, 1-chloro-3-(1-(5-chloro-2-ethoxy-4′-methoxy-6-methyl-[1,1′-biphenyl]-3-yl)ethyl)imidazo[1,5-a]pyrazin-8-amine] | 6.03 | 5.92 | 5.96 | 7.77
CCOc1c(C(C)c2nc(Cl)c3c(N)nccn23)cc(Cl)c(C)c1C1CNC(=O)C1 (stereo not shown) [Compound 46, 4-(3-(1-(8-amino-1-chloroimidazo[1,5-a]pyrazin-3-yl)ethyl)-5-chloro-2-ethoxy-6-methylphenyl)pyrrolidin-2-one] | 6.33 | 6.04 | 5.25 | 9.15
CC(C)Oc1c(C(C)c2nc(Cl)c3c(N)nccn23)cc(Cl)c(F)c1C1CNC(=O)C1 (stereo not shown) [Compound 48, 4-(3-(1-(8-amino-1-chloroimidazo[1,5-a]pyrazin-3-yl)ethyl)-5-chloro-6-fluoro-2-isopropoxyphenyl)pyrrolidin-2-one] | 6.24 | 6.28 | 6.27 | 9.38
CCOc1cc(C)c(Cl)cc1C(C)c1nc(Br)c2c(N)nccn12 (stereo not shown) [Compound 50, 1-bromo-3-(1-(5-chloro-2-ethoxy-4-methylphenyl)ethyl)imidazo[1,5-a]pyrazin-8-amine] | 6.17 | 5.59 | 4.44 | 7.77
CCOc1c(C(C)c2nc(Cl)c3c(N)nccn23)cc(Cl)c(C)c1N1CCOCC1 (stereo not shown) [Compound 51, 1-chloro-3-(1-(5-chloro-2-ethoxy-4-methyl-3-morpholinophenyl)ethyl)imidazo[1,5-a]pyrazin-8-amine] | 5.57 | 5.77 | 5.54 | 8.80
CC(c1cc(Cl)c(C#N)c(=O)n1-c1ccccc1)n1cc(Br)c2c(N)ncnc21 (stereo not shown) [Compound 54, 6-(1-(4-amino-5-bromo-7H-pyrrolo[2,3-d]pyrimidin-7-yl)ethyl)-4-chloro-2-oxo-1-phenyl-1,2-dihydropyridine-3-carbonitrile] | 5.77 | 5.38 | 4.54 | 7.82
COc1cc(C(C)n2cc(Br)c3c(N)ncnc32)n(-c2ccccc2)c(=O)c1C#N (stereo not shown) [Compound 57, 6-(1-(4-amino-5-bromo-7H-pyrrolo[2,3-d]pyrimidin-7-yl)ethyl)-4-methoxy-2-oxo-1-phenyl-1,2-dihydropyridine-3-carbonitrile] | 5.91 | 5.72 | 4.08 | 7.70
Cc1nc([C@@H](C)c2cc(Cl)c(F)c(-c3ccc(C(F)(F)F)nc3)c2OC(C)C)n2ccnc(N)c12 [Compound 58, (S)-3-(1-(5-chloro-4-fluoro-2-isopropoxy-3-(6-(trifluoromethyl)pyridin-3-yl)phenyl)ethyl)-1-methylimidazo[1,5-a]pyrazin-8-amine] | 4.77 | 4.89 | 4.85 | 8.25
Cc1nc(C(C)c2cc(Cl)c(F)c(-c3ccc(C#N)nc3)c2OC(C)C)n2ccnc(N)c12 (stereo not shown) [Compound 59, 5-(3-(1-(8-amino-1-methylimidazo[1,5-a]pyrazin-3-yl)ethyl)-5-chloro-6-fluoro-2-isopropoxyphenyl)picolinonitrile] | 5.46 | 5.20 | 5.00 | 8.60
